# Experimental data as given in patent publication US7547686B2, “Combretastatin A-3 prodrug” (Arizona Board of Regents, a body corporate of the State of …, priority 2001, dated 2009).
# Key:
# [1] = system: Stenotrophomonas maltophilia, Micrococcus luteus, Staphylococcus aureus, Escherichia coli, Enterobacter cloacae, Enterococcus faecalis, Streptococcus …; conditions: Pettit et al., 2000; cited from earlier work
# [2] = system: Cryptococcus neoformans; assay: Disk diffusion assay, Cryptococcus neoformans; format: cell-based
# Text: (§1) Antimicrobial susceptibility testing. Compounds were screened against the bacteria Stenotrophomonas maltophilia, Micrococcus luteus, Staphylococcus aureus, Escherichia coli, Enterobacter cloacae, Enterococcus faecalis, Streptococcus pneumoniae, Neisseria gonorrhoeae, and the fungi Candida albicans and Cryptococcus neoformans, according to established disk susceptibility testing protocols (National Committee for Clinical Laboratory Standards 1997. Performance standards for antimicrobial disk susceptibility tests-sixth edition: Approved Standard M2-A6, NCCLS, Wayne, Pa.)
# [3] = system: human cancer cell lines and murine P388 lymphocytic leukemia cell line; assay: Cancer cell line inhibitory activity, panel as a whole (Table II); format: cell-based
# [4] = system: Stenotrophomonas maltophilia, Micrococcus luteus, Staphylococcus aureus, Escherichia coli, Enterobacter cloacae, Enterococcus faecalis, Streptococcus …; assay: Antimicrobial disk susceptibility testing, bacteria and fungi panel; format: cell-based
# Text: as §1
# [5] = format: physicochemical; conditions: at 25° C.
Compound,Solubility [5] [mg/mL],also measured
COc1ccc(/C=C/c2cc(OC)c(OC)c(OC)c2)c(O)c1O [(E)-combretastatin A-1],,antibacterial and antifungal activities (literature) [1]: antibacterial and antifungal activities
"COc1ccc(/C=C\c2cc(O)c(OC)c(OC)c2)cc1O [Compound 2a, Combretastatin A-3]",,MIC [2]: 50-100 μg/disk
"COc1ccc(/C=C\c2cc(OC)c(OC)c(OP(=O)([O-])O)c2)cc1OP(=O)([O-])O.[Na+].[Na+] [Compound 10a, Sodium combretastatin A-3 3,3′-O-phosphate]",>218,cancer cell line inhibitory activity (in words) [3]: good cancer cell line inhibitory activity; activity in disk diffusion assays [4]: not active
COc1ccc(/C=C\c2cc(OC)c(OC)c(OP(=O)([O-])O)c2)cc1OP(=O)([O-])O.[Li+].[Li+] [Compound 10b],>100,
COc1ccc(/C=C\c2cc(OC)c(OC)c(OP(=O)([O-])O)c2)cc1OP(=O)([O-])O.[K+].[K+] [Compound 10c],>228,cancer cell line inhibitory activity (in words) [3]: good cancer cell line inhibitory activity
COc1ccc(/C=C\c2cc(OC)c(OC)c(OP(=O)([O-])O)c2)cc1OP(=O)([O-])O.[Rb+].[Rb+] [Compound 10d],>60,
COc1ccc(/C=C\c2cc(OC)c(OC)c(OP(=O)([O-])[O-])c2)cc1OP(=O)([O-])[O-].[Mg+2].[Mg+2] [Compound 10h],10,
C1COCCN1.C1COCCN1.COc1ccc(C=Cc2cc(OC)c(OC)c(OP(=O)(O)O)c2)cc1OP(=O)(O)O [Compound 10k],>40,
COc1ccc(/C=C\c2cc(OC)c(OC)c(OP(=O)(O)O)c2)cc1OP(=O)(O)O.NC(=O)c1cccnc1.NC(=O)c1cccnc1.NC(=O)c1cccnc1.NC(=O)c1cccnc1 [Compound 10l],27,
